{
  "source": "patent EP1891948A1",
  "about": "“Treatment of neurological and neuropsychological disorders” (Probiodrug AG, priority 2000, dated 2002)",
  "test_system": "WistarF/Han (WF) rats",
  "assay": "Social interaction (SI) test of anxiety, combined i.c.v. treatment (Example 3)",
  "assay_type": "in vivo",
  "conditions": "isoleucyl thiazolidine alone 5pmol-500nmol, Fig. 7",
  "protocol": "Animals. Male WistarF/Han (WF) rats (Central Animal Laboratory, Hannover Medical School, Hannover, Germany, see http://www.mh-hannover.de/institut/tierlabor/wf.htm for details), weighing 330-370g, were housed in a sound-proof, temperature controlled (24.0±0.5°C) room under specific pathogen free conditions with a 12/12h dark/light cycle (lights on at 07.00 with illumination level of 80 Lux). Food (Altromin lab chow pellets) and tap water were available ad libitum. Under ketamine/xylasine (100/5 mg/kg, i.p.) anesthesia, the rats were fixed in a Kopf stereotaxic frame and implanted with cannulae (Plastic One, Inc., Roanoke, VA, USA) above the lateral ventricle. […]\nAnimals were randomly divided into two sets of four experimental groups (n=5-6/group), which completed different consecutive SI test of anxiety. […] The time spent in active social interaction (SI-time), 1h and 12h food-intake were measured. […]\nSocial interaction (SI) test. […] Behavior was monitored using a video camera placed above the field inside the testing/isolation box. The SI behavior of both rats was recorded on-line from a monitor placed outside on top of the box. The following parameters were scored by an observer (HPN) unaware of the substrain of rats: duration of time spent in sniffing, following, crawling under and over other rats, but not passive body contact (resting, sleeping). […]",
  "data": [
    {"smiles": "CCC(C)C(N)C(=O)N1CCSC1", "note": "(stereo not shown) [isoleucyl thiazolidine]", "values": [
      {"measurement": "time spent in active social interaction (SI-time)", "value": "\"bell-shaped\" dose-dependent anxiolytic-like effects"}
    ]}
  ]
}
